Test results taken from PubChem BioAssay AID1687.

These compounds were tested against pyruvate kinase (Geobacillus stearothermophilus) (assay: modulators of bacterial pyruvate kinase activity – biochemical, Geobacillus stearothermophilus, confirmation (AID 1687)). Conditions: purified enzyme, LDH-coupled NADH absorbance 340 nm.

Compound	AC50 [µM]
O=C(CN1c2cccc3cccc(c23)S1(=O)=O)NCc1ccccc1OC(F)F	7.6
COc1cccc(CN2c3cccc4cccc(c34)S2(=O)=O)c1	5.5
Cn1c2ccccc2n2cc(-c3ccc4c(c3)OCO4)nc12	1
CN(C)CCCN(C(=O)c1ccc(Cl)s1)c1nc2cc3c(cc2s1)OCO3	8.9
CN(C)CCn1c2ccccc2n2cc(-c3ccc4c(c3)OCO4)nc12	1.7
C=CCn1c2ccccc2n2cc(-c3ccc4c(c3)OCO4)nc12	10.5
NNC(=O)c1ccc(CN2c3cccc4cccc(c34)S2(=O)=O)cc1	4.9
CCn1c2ccccc2n2cc(-c3ccc4c(c3)OCO4)nc12	2
CCN(CC)CCn1c2ccccc2n2cc(-c3ccc4c(c3)OCO4)nc12	2.2
